# Measured values published in patent US10829778B2, “Plants having increased tolerance to herbicides” (BASF SE, priority 2013, dated 2020).
# What was measured:
# Type in all cases: biochemical
# [1] = biological target: T1, Arabidopsis HPPD (SEQ ID: 53) M335H, P336A, E363Q (Arabidopsis thaliana, UniProt P93836, E363Q/M335H/P336A); experiment: HPPD activity assay, mutant enzyme; details: Table 15, normalized to Arabidopsis wild-type
# T1 construct: PCR-based site directed mutagenesis of pEXP5-NT/TOPO®-AtHPPD; His6 (N); made in house; host or cells: E. coli BL21 (DE3)
# Description: (§1) HPPD produces homogentisic acid and CO2 from 4-hydroxyphenylpyruvate (4-HPP) and O2. The activity assay for HPPD is based on the analysis of homogentisic acid by reversed phase HPLC.
# (§2) The assay mixture can contain 150 mM potassium phosphate buffer pH 7.0, 50 mM L-ascorbic acid, 100 μM Catalase (Sigma-Aldrich), 1 μM FeSO4 and 0.2 units of purified HPPD enzyme in a total volume of 505 μl. 1 unit is defined as the amount of enzyme that is required to produce 1 nmol of HGA per minute at 20° C.
# (§3) After a preincubation of 30 min the reaction is started by adding 4-HPP to a final concentration of 0.05 mM. The reaction is allowed to proceed for 45 min at room temperature. The reaction is stopped by the addition of 50 μl of 4.5 M phosphoric acid. The sample is filtered using a […] pore size PVDF filtration device.
# (§4) 5 μl of the cleared sample is analyzed on an UPLC HSS T3 column (particle size 1.8 μm, dimensions 2.1×50 mm; Waters) by isocratic elution using 90% 20 mM NaH2PO4 pH 2.2, 10% methanol (v/v).
# (§5) HGA is detected electrochemically at 750 mV (mode: DC; polarity: positive) and quantified by integrating peak areas (Empower software; Waters).
# (§6) Inhibitors are dissolved in DMSO (dimethylsulfoxide) to a concentration of 0.5 mM. From this stock solution serial five-fold dilutions are prepared in DMSO, which are used in the assay. The respective inhibitor solution accounts for 1% of the assay volume. […] Activities are normalized by setting the uninhibited enzyme activity to 100%. IC50 values are calculated using non-linear regression.
# (§7) Purified, mutant HPPD enzymes are obtained by the methods described above. Dose response and kinetic measurements are carried out using the described HPPD activity assay. Apparent michaelis constants (Km) and maximal reaction velocities (Vmax) are calculated by non-linear regression with the software GraphPad Prism 5 (GraphPad Software, La Jolla, USA) using a substrate inhibition model. […] Weighted means (by standard error) of Km and IC50 values are calculated from at least three independent experiments.
# (§8) Field performance of the optimized HPPD enzyme, which is used as a herbicide tolerance trait may depend not only on its lack of sensitivity towards HPPD inhibiting herbicides but also on its activity. To assess the potential performance of a herbicide tolerance trait a tolerance index (TI) is calculated using the following formula: […]
# (§9) Easy comparison and ranking of each trait is enabled by normalizing tolerance indexes on Arabidopsis or Hordeum wild-type HPPD.
# HvHPPD G407C (SEQ ID: 2) = biological target: T2, HvHPPD G407C (SEQ ID: 2) (Hordeum vulgare, UniProt O48604, A164G/G407C/R146V/R147D/R148G); experiment: HPPD activity assay, mutant enzyme; details: Table 16, normalized to Hordeum wild-type
# T2 construct: His tag (N); made in house; host or cells: E. coli BL21 (DE3)
# Description: as §1, §2, §3, §4, §5, §6, §7, §8, §9
# [2] = biological target: T3, Hordeum HPPD (SEQ ID: 2) L250M (Hordeum vulgare, UniProt O48604, A164G/L250M/R146V/R147D/R148G); experiment: HPPD activity assay, mutant enzyme; details: Table 16, normalized to Hordeum wild-type
# T3 construct: His tag (N); made in house; host or cells: E. coli BL21 (DE3)
# Description: as §1, §2, §3, §4, §5, §6, §7, §8, §9
# HvHPPD L320Q (SEQ ID: 2) = biological target: T4, HvHPPD L320Q (SEQ ID: 2) (Hordeum vulgare, UniProt O48604, A164G/L320Q/R146V/R147D/R148G); experiment: HPPD activity assay, mutant enzyme; details: Table 16, normalized to Hordeum wild-type
# T4 construct: His tag (N); made in house; host or cells: E. coli BL21 (DE3)
# Description: as §1, §2, §3, §4, §5, §6, §7, §8, §9
# [3] = biological target: T5, HvHPPD L353M, P321R, L320Q (SEQ ID: 2) (Hordeum vulgare, UniProt O48604, L320Q/L353M/P321R); experiment: HPPD activity assay, mutant enzyme; details: Table 16, normalized to Hordeum wild-type
# T5 construct: His tag (N); made in house; host or cells: E. coli BL21 (DE3)
# Description: as §1, §2, §3, §4, §5, §6, §7, §8, §9
# [4] = biological target: T6, Arabidopsis HPPD (SEQ ID: 53) F381I (Arabidopsis thaliana, UniProt P93836, F381I); experiment: HPPD activity assay, mutant enzyme; details: Table 15, normalized to Arabidopsis wild-type
# T6 construct: PCR-based site directed mutagenesis of pEXP5-NT/TOPO®-AtHPPD; His6 (N); made in house; host or cells: E. coli BL21 (DE3)
# Description: as §1, §2, §3, §4, §5, §6, §7, §8, §9
# [5] = biological target: T7, Hordeum HPPD (SEQ ID NO:2) (Hordeum vulgare, UniProt O48604, A164G/R146V/R147D/R148G); experiment: HPPD activity assay (HGA by HPLC), wildtype enzyme
# T7 construct: subcloned into a modified pET24D (Novagen) expression vector resulting in N-terminally His-tagged expression constructs; His tag (N); made in house; host or cells: E. coli BL21 (DE3)
# Description: as §1, §2, §3, §4, §5, §6
# (§10) Using methods which are described in the above examples or well known in the art, purified, recombinant wildtype HPPD enzymes are characterized with respect to their kinetic properties and sensitivity towards HPPD inhibiting herbicides. Apparent michaelis constants (Km) and maximal reaction velocities (Vmax) are calculated by non-linear regression with the software GraphPad Prism 5 (GraphPad Software, La Jolla, USA) using a substrate inhibition model. […] Weighted means (by standard error) of Km and IC50 values are calculated from at least three independent experiments.
# as §8, with “the” for “the optimized”
# (§11) Easy comparison and ranking of each trait is enabled by normalizing tolerance indexes on Arabidopsis wild-type HPPD.
# [6] = biological target: T8, Arabidopsis HPPD (SEQ ID NO:53) (Arabidopsis thaliana, UniProt P93836); experiment: HPPD activity assay (HGA by HPLC), wildtype enzyme
# T8 construct: His6 (N); made in house; host or cells: E. coli BL21 (DE3)
# T8 sequence (P93836 1-445): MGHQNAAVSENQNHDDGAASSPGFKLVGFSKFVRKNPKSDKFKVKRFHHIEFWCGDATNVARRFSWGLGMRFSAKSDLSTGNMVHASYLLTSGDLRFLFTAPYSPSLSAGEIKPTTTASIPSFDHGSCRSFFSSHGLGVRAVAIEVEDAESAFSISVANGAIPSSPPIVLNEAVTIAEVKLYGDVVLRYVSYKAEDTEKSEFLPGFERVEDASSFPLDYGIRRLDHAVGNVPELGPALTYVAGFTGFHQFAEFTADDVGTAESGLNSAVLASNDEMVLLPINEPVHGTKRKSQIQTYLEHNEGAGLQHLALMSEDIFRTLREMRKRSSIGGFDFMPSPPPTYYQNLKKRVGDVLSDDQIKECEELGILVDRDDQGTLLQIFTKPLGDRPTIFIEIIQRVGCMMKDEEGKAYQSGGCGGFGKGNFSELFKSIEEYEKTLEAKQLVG
# Description: as §1, §2, §3, §4, §5, §6, §10
# as §8, with “the” for “the optimized”
# as §11
# T7 sequence (O48604 whole entry R146V/R147D/R148G/A164G): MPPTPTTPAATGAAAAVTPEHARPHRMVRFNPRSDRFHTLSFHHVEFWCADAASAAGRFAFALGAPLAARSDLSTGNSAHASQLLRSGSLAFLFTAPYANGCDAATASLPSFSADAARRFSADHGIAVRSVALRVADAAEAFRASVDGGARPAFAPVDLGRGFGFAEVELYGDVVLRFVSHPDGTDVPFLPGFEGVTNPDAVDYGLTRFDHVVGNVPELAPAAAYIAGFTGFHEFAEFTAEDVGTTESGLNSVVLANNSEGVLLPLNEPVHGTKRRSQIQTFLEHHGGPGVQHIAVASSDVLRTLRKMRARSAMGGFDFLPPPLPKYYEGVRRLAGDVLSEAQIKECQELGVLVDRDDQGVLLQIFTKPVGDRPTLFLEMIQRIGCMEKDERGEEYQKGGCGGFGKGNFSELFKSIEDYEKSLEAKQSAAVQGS
# T1 sequence (P93836 whole entry M335H/P336A/E363Q): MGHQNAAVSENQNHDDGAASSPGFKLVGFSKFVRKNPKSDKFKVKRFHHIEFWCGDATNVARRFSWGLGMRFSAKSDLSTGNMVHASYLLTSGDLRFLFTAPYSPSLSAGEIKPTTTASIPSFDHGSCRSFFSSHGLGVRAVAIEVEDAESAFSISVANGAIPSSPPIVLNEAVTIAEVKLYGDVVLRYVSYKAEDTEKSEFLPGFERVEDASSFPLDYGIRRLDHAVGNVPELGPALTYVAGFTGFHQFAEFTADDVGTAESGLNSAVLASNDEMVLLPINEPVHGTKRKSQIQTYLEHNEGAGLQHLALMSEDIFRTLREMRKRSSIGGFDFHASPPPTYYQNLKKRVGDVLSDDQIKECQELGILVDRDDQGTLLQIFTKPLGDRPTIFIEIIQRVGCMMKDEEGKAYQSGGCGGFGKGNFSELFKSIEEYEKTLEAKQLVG
# T4 sequence (O48604 whole entry R146V/R147D/R148G/A164G/L320Q): as the sequence (O48604 whole entry R146V/R147D/R148G/A164G) above, with L320Q counted along it
# T6 sequence (P93836 whole entry F381I): as the sequence (P93836 whole entry M335H/P336A/E363Q) above, with H335M, A336P, Q363E, F381I counted along it
# T2 sequence (O48604 whole entry R146V/R147D/R148G/A164G/G407C): as the sequence (O48604 whole entry R146V/R147D/R148G/A164G) above, with G407C counted along it
# T5 sequence (O48604 whole entry R146V/R147D/R148G/A164G/L320Q/P321R/L353M): as the sequence (O48604 whole entry R146V/R147D/R148G/A164G) above, with L320Q, P321R, L353M counted along it
# T3 sequence (O48604 whole entry R146V/R147D/R148G/A164G/L250M): as the sequence (O48604 whole entry R146V/R147D/R148G/A164G) above, with L250M counted along it
structure (smiles),measurement,setting,value
"Cc1nonc1NC(=O)c1ccc(S(C)(=O)=O)c(S(C)(=O)=O)c1C [Inhibitor 1, 2-methyl-N-(4-methyl-1,2,5-oxadiazol-3-yl)-3,4-bis(methylsulfonyl)benzamide]",Normalized tolerance index TI Inhibitor 1,[1],6.7
same,Normalized tolerance index TI Inhibitor 1,HvHPPD G407C (SEQ ID: 2),5
same,Normalized tolerance index TI Inhibitor 1,[2],2.1
same,Normalized tolerance index TI Inhibitor 1,HvHPPD L320Q (SEQ ID: 2),1.1
same,Normalized tolerance index TI Inhibitor 1,[3],12.6
same,Normalized tolerance index TI Inhibitor 1,[4],37
same,Ki,[5],5.6 nM
same,Normalized tolerance index TI Inhibitor 1,"[5]; Table 12, normalized to Arabidopsis HPPD, Hordeum",1.5
same,Normalized tolerance index TI Inhibitor 1,"[5]; Table 16, Hordeum HPPD Wildtype (reference)",1
same,TI (tolerance index),"[5]; not normalized, Table 11, Hordeum enzyme",2.5E−3
same,Ki,[6],1.6 nM
same,Normalized tolerance index TI Inhibitor 1,"[6]; Table 12, normalized to Arabidopsis HPPD SEQ ID NO:53 (reference)",1
same,Normalized tolerance index TI Inhibitor 1,"[6]; Table 15, Arabidopsis HPPD Wildtype (reference)",1
same,TI (tolerance index),"[6]; not normalized, Table 11, Arabidopsis enzyme",1.6E−3
